# Results from patent publication US11617777B2, “Cytotoxic and anti-mitotic compounds, and methods of using the same” (ZYMEWORKS BC INC., priority 2013, dated 2023).
# Where two headings read alike, the source gives them in different places.
# Test system: Jurkat cells
# Test: Cytotoxicity of compounds, CellTiter-Glo
# Format: cell-based, Human
# Conditions: read-out: EC50
# Source text: Cell lines used: Human T-cell leukemia cell line Jurkat (ATCC: TIB-152); HCC1954 (ATCC: CRL. 2338); Human Pancreatic cells lines: AsPC-1 (ATCC: CRL-1682), BxPC-3 (ATCC: CRL.1687), HPAF-II (ATCC: CRL.1997), MiaPaCa2 (ATCC: CRL.1420), PANC-1 (ATCC: CRL.1469), Capan-1 (ATCC: HTB-79), Capan-2 (ATCC: HTB-80) and the Human gastric carcinoma cell line NCI-N87 (ATCC: CRL. 5822); AML-193 (ATCC: CRL.9589), CCRF-CEM (ATCC: CCL-119), DU145 (ATCC: HTB-81), PC-3 (ATCC: CRL.1435), A-431 (ATCC: CRL.1555), HT-29 (ATCC: HTB-38), A-172 (ATCC: CRL.1620), NCI-H358 (ATCC: CRL.5807), A549 (ATCC: CCL-185), Colo-205 (ATCC: CCL-222), MDA-MB-231 (ATCC: HTB-26), OVCAR-3 (ATCC: HTB-161), OV-90 (ATCC: CRL.11732), OE19 (Sigma: 96071721), RT 112/84 (Sigma: 85061106).
# On the day prior to adding compounds, HCC1954 AsPC-1, BxPC-3, HPAF-II, MiaPaCa2, PANC-1, Capan-1, Capan-2 and NCI-N87 cells were added to opaque-walled 96-well tissue culture-treated microtiter plates using complete growth medium at a density of 2500 cells/100 microlitre (uL) of medium. These adherant cell lines cells were incubated for one night at 37° C./5% CO2 to allow the cells to attach to the microtiter plate surface. On the day that compounds were added, Jurkat cells are added to separate 96-well microtiter plates at 2500 cells/100 uL using the same growth medium as HCC1954. Compound were first serially diluted using dimethyl sulfoxide, and then the prepared dilutions are added to complete growth medium at five-times the final concentration—compounds were then titrated 1:3, eight steps. A control with no compound (growth medium alone) was included on each microtiter plate in sextuplicate. The prepared compounds titrations were added (twenty-five uL/well) in triplicate. The cells and compound titrations were incubated at 37° C./5% CO2 for three nights. After the incubation, cell viability is measured using CellTiter-Glo® reagent by adding thirty uL of prepared CellTiter-Glo® to each assay well. The assay is incubated for at least twenty minutes in the dark prior to measuring emitted luminescence using a microplate luminometer (500 ms integration time). The collected relative luminescence units (RLU) are converted to % cytotoxicity using the Growth medium alone control mentioned above (% Cytotoxicity=1−[Well RLU/average medium alone control RLU]).
# GraphPad Prism was used for generation of EC50 values using three parameter non-linear regression curve fitting.
# [1] = Homo sapiens, Jurkat, Table 3, Cytotoxicity of Compounds on Jurkat Cells
# [2] = Homo sapiens, Jurkat, Table 6, Compound Cytotoxicity on Jurkat
# [3] = Homo sapiens, Jurkat, Table 7, Cytotoxicity on Jurkat
Compound,EC50 [1],EC50 [2],also measured
"CN[C@H](C(=O)N[C@H](C(=O)N(C)[C@H](/C=C(\C)C(=O)NS(=O)(=O)CCOC)C(C)C)C(C)(C)C)C(C)(C)c1ccccc1 [Compound 34, (S,E)-N-(2-methoxyethylsulfonyl)-2,5-dimethyl-4-((S)—N,3,3-trimethyl-2-((S)-3-methyl-2-(methylamino)-3-phenylbutanamido)butanamido)hex-2-enamide]",0.2 nM,,
"CN[C@H](C(=O)N[C@H](C(=O)N(C)[C@H](/C=C(\C)C(=O)NS(=O)(=O)Cc1ccc(C#N)cc1)C(C)C)C(C)(C)C)C(C)(C)c1ccccc1 [Compound 69, (S,E)-N-(4-cyanobenzylsulfonyl)-2,5-dimethyl-4-((S)—N,3,3-trimethyl-2-((S)-3-methyl-2-(methylamino)-3-phenylbutanamido)butanamido)hex-2-enamide]",,1.56 nM,
"CN[C@H](C(=O)N[C@H](C(=O)N(C)[C@H](/C=C(\C)C(=O)NS(=O)(=O)c1cccc(C#N)c1)C(C)C)C(C)(C)C)C(C)(C)c1ccccc1 [Compound 18, (S,E)-N-(3-cyanophenylsulfonyl)-2,5-dimethyl-4-((S)—N,3,3-trimethyl-2-((S)-3-methyl-2-(methylamino)-3-phenylbutanamido)butanamido)hex-2-enamide]",1.36 nM,,
"CN[C@H](C(=O)N[C@H](C(=O)N(C)[C@H](/C=C(\C)C(=O)NS(=O)(=O)Cc1ccc(C2(NC(=O)C(F)(F)F)CC2)cc1)C(C)C)C(C)(C)C)C(C)(C)c1ccccc1 [Compound 57, (S,E)-2,5-dimethyl-N-(4-(1-(2,2,2-trifluoroacetamido)cyclopropyl)benzylsulfonyl)-4-((S)—N,3,3-trimethyl-2-((S)-3-methyl-2-(methylamino)-3-phenylbutanamido)butanamido)hex-2-enamide]",0.566 nM,,
"CCc1cc(N)ccc1S(=O)(=O)NC(=O)/C(C)=C/[C@H](C(C)C)N(C)C(=O)[C@@H](NC(=O)[C@@H](NC)C(C)(C)c1ccccc1)C(C)(C)C [Compound 107, (S,E)-N-(4-amino-2-ethylphenylsulfonyl)-2,5-dimethyl-4-((S)—N,3,3-trimethyl-2-((S)-3-methyl-2-(methylamino)-3-phenylbutanamido)butanamido)hex-2-enamide]",,0.043 nM,EC50 [3]: 0.043 nM
"CN[C@H](C(=O)N[C@H](C(=O)N(C)[C@H](/C=C(\C)C(=O)NS(=O)(=O)CCc1ccccc1)C(C)C)C(C)(C)C)C(C)(C)c1ccccc1 [Compound 67, (S,E)-2,5-dimethyl-N-(phenethylsulfonyl)-4-((S)—N,3,3-trimethyl-2-((S)-3-methyl-2-(methylamino)-3-phenylbutanamido)butanamido)hex-2-enamide]",,0.562 nM,
"CN[C@H](C(=O)N[C@H](C(=O)N(C)[C@H](/C=C(\C)C(=O)NS(=O)(=O)c1ccc(CNC(=O)C(F)(F)F)cc1)C(C)C)C(C)(C)C)C(C)(C)c1ccccc1 [Compound 84, (S,E)-2,5-dimethyl-N-(4-((2,2,2-trifluoroacetamido)methyl)phenylsulfonyl)-4-((S)—N,3,3-trimethyl-2-((S)-3-methyl-2-(methylamino)-3-phenylbutanamido)butanamido)hex-2-enamide]",1.39 nM,,
"CN[C@H](C(=O)N[C@H](C(=O)N(C)[C@H](/C=C(\C)C(=O)NS(=O)(=O)Cc1cccc(C(F)(F)F)c1)C(C)C)C(C)(C)C)C(C)(C)c1ccccc1 [Compound 102, (S,E)-2,5-dimethyl-N-(3-(trifluoromethyl)benzylsulfonyl)-4-((S)—N,3,3-trimethyl-2-((S)-3-methyl-2-(methylamino)-3-phenylbutanamido)butanamido)hex-2-enamide]",,0.289 nM,
"CCCCC(C)S(=O)(=O)NC(=O)/C(C)=C/[C@H](C(C)C)N(C)C(=O)[C@@H](NC(=O)[C@@H](NC)C(C)(C)c1ccccc1)C(C)(C)C (stereo partly drawn) [Compound 33, (4S,E)-N-(hexan-2-ylsulfonyl)-2,5-dimethyl-4-((S)—N,3,3-trimethyl-2-((S)-3-methyl-2-(methylamino)-3-phenylbutanamido)butanamido)hex-2-enamide]",,0.636 nM,
"CN[C@H](C(=O)N[C@H](C(=O)N(C)[C@H](/C=C(\C)C(=O)NS(=O)(=O)c1c(C(C)C)cc(C(C)C)cc1C(C)C)C(C)C)C(C)(C)C)C(C)(C)c1ccccc1 [Compound 15, (S,E)-2,5-dimethyl-N-(2,4,6-triisopropylphenylsulfonyl)-4-((S)—N,3,3-trimethyl-2-((S)-3-methyl-2-(methylamino)-3-phenylbutanamido)butanamido)hex-2-enamide]",7.6 nM,,
"CN[C@H](C(=O)N[C@H](C(=O)N(C)[C@H](/C=C(\C)C(=O)NS(=O)(=O)NCc1ccccc1F)C(C)C)C(C)(C)C)C(C)(C)c1ccccc1 [Compound 26, (S,E)-N—(N-(2-fluorobenzyl)sulfamoyl)-2,5-dimethyl-4-((S)—N,3,3-trimethyl-2-((S)-3-methyl-2-(methylamino)-3-phenylbutanamido)butanamido)hex-2-enamide]",0.105 nM,,
"CN[C@H](C(=O)N[C@H](C(=O)N(C)[C@H](/C=C(\C)C(=O)NS(=O)(=O)c1ccc(N)c(F)c1)C(C)C)C(C)(C)C)C(C)(C)c1ccccc1 [Compound 112, (S,E)-N-(4-amino-3-fluorophenylsulfonyl)-2,5-dimethyl-4-((S)—N,3,3-trimethyl-2-((S)-3-methyl-2-(methylamino)-3-phenylbutanamido)butanamido)hex-2-enamide]",,0.064 nM,EC50 [3]: 0.064 nM
"CN[C@H](C(=O)N[C@H](C(=O)N(C)[C@H](/C=C(\C)C(=O)NS(=O)(=O)Cc1cccnc1)C(C)C)C(C)(C)C)C(C)(C)c1ccccc1 [Compound 45, (S,E)-2,5-dimethyl-N-(pyridin-3-ylmethylsulfonyl)-4-((S)—N,3,3-trimethyl-2-((S)-3-methyl-2-(methylamino)-3-phenylbutanamido)butanamido)hex-2-enamide]",0.869 nM,0.373 nM,
"CN[C@H](C(=O)N[C@H](C(=O)N1CCCCC1C=C(C)C(=O)NS(=O)(=O)c1ccc(CS)cc1)C(C)(C)C)C(C)(C)c1ccccc1 (mixture of isomers) [Compound 118, (S)—N—((S)-1-(2-(3-(4-(mercaptomethyl)phenylsulfonamido)-2-methyl-3-oxoprop-1-enyl)piperidin-1-yl)-3,3-dimethyl-1-oxobutan-2-yl)-3-methyl-2-(methylamino)-3-phenylbutanamide]",13 nM,,
"CN[C@H](C(=O)N[C@H](C(=O)N(C)[C@H](/C=C(\C)C(=O)NS(=O)(=O)Cc1ccc(C2(N)CC2)cc1)C(C)C)C(C)(C)C)C(C)(C)c1ccccc1 [Compound 58, (S,E)-N-(4-(1-aminocyclopropyl)benzylsulfonyl)-2,5-dimethyl-4-((S)—N,3,3-trimethyl-2-((S)-3-methyl-2-(methylamino)-3-phenylbutanamido)butanamido) hex-2-enamide]",0.816 nM,,
"CN[C@H](C(=O)N[C@H](C(=O)N(C)[C@H](/C=C(\C)C(=O)NS(=O)(=O)c1cccs1)C(C)C)C(C)(C)C)C(C)(C)c1ccccc1 [Compound 50, (S,E)-2,5-dimethyl-N-(thiophen-2-ylsulfonyl)-4-((S)—N,3,3-trimethyl-2-((S)-3-methyl-2-(methylamino)-3-phenylbutanamido)butanamido)hex-2-enamide]",0.171 nM,,
"CN[C@H](C(=O)N[C@H](C(=O)N(C)[C@H](/C=C(\C)C(=O)NS(=O)(=O)Cc1ccccc1C#N)C(C)C)C(C)(C)C)C(C)(C)c1ccccc1 [Compound 105, (S,E)-N-(2-cyanobenzylsulfonyl)-2,5-dimethyl-4-((S)—N,3,3-trimethyl-2-((S)-3-methyl-2-(methylamino)-3-phenylbutanamido)butanamido)hex-2-enamide]",,0.731 nM,"EC50 (Table 6, Compound Cytotoxicity on Jurkat): 0.753 nM"
"CN[C@H](C(=O)N[C@H](C(=O)N(C)[C@H](/C=C(\C)C(=O)NS(=O)(=O)c1ccc(C(C)(C)C)cc1)C(C)C)C(C)(C)C)C(C)(C)c1ccccc1 [Compound 16, (S,E)-N-(4-tert-butylphenylsulfonyl)-2,5-dimethyl-4-((S)—N,3,3-trimethyl-2-((S)-3-methyl-2-(methylamino)-3-phenylbutanamido)butanamido)hex-2-enamide]",0.041 nM,,
